DBAASP
Values after ≈ are worked out from the molar mass of the structure shown.

Columns and labels:
Assay in all cases: ≥ marks a high value that may be exact or a test limit, other limits are often not marked, values filed in µg/mL are converted to µM
[1] = tested on: Escherichia coli ATCC 25922
Escherichia coli UB1005 = tested on: Escherichia coli UB1005
[2] = tested on: Salmonella enterica subsp. enterica serovar Typhimurium C77-31
[3] = tested on: Staphylococcus aureus ATCC 25923
[4] = tested on: Staphylococcus aureus ATCC 29213
[5] = tested on: Staphylococcus epidermidis ATCC 12228
[6] = tested on: Bacillus subtilis KCTC 3068
[7] = tested on: Escherichia coli KCTC 1682
[8] = tested on: Pseudomonas aeruginosa KCTC 1637
[9] = tested on: Salmonella typhimurium KCTC 1926
[10] = tested on: Staphylococcus aureus KCTC 1621
[11] = tested on: Staphylococcus epidermidis KCTC 1917
[12] = tested on: Escherichia coli ATCC 8739
Klebsiella pneumoniae = tested on: Klebsiella pneumoniae
[13] = tested on: Pseudomonas aeruginosa ATCC 27853
Acinetobacter baumannii = tested on: Acinetobacter baumannii
Escherichia coli = tested on: Escherichia coli
Pseudomonas aeruginosa = tested on: Pseudomonas aeruginosa
Staphylococcus aureus = tested on: Staphylococcus aureus

| Compound | MIC [1] | MIC (Escherichia coli UB1005) | MIC [2] | MIC [3] | MIC [4] | MIC [5] | MIC [12] | other results |
| --- | --- | --- | --- | --- | --- | --- | --- | --- |
| CC(C)C[C@H](NC(=O)[C@H](CCCN=C(N)N)NC(=O)[C@@H](NC(=O)[C@H](CCCN=C(N)N)NC(=O)[C@@H](NC(=O)[C@H](CCCCN)NC(=O)[C@@H](NC(=O)[C@H](CCCN=C(N)N)NC(=O)[C@H](CC(C)C)NC(=O)[C@H](CCCN=C(N)N)NC(=O)[C@@H](N)C(C)C)C(C)C)[C@@H](C)O)C(C)C)C(=O)N[C@@H](CCCCN)C(N)=O [VRLRVKTRVRLK] | 4 µM (≈ 6.09 µg/mL) | 4 µM (≈ 6.09 µg/mL) | 16 µM (≈ 24.4 µg/mL) | 64 µM (≈ 97.5 µg/mL) | 16 µM (≈ 24.4 µg/mL) | 32 µM (≈ 48.7 µg/mL) | – | – |
| CC(C)C[C@H](NC(=O)[C@H](Cc1ccc(O)cc1)NC(=O)[C@H](Cc1cnc[nH]1)NC(=O)[C@@H](NC(=O)[C@H](CC(C)C)NC(=O)[C@H](C)NC(=O)[C@H](C)NC(=O)[C@H](CCCCN)NC(=O)CNC(=O)[C@@H](NC(=O)[C@H](Cc1cnc[nH]1)NC(=O)[C@H](CCCCN)NC(=O)[C@H](C)NC(=O)[C@@H](NC(=O)[C@H](Cc1cnc[nH]1)NC(=O)[C@H](C)NC(=O)[C@H](C)NC(=O)[C@H](CCCCN)NC(=O)[C@H](CCCCN)NC(=O)[C@H](Cc1ccccc1)NC(=O)[C@H](Cc1ccccc1)NC(=O)[C@H](CO)NC(=O)CNC(=O)[C@H](Cc1c[nH]c2ccccc12)NC(=O)CN)C(C)C)C(C)C)[C@@H](C)O)C(=O)O [GWGSFFKKAAHVAKHVGKAALTHYL] | – | – | – | – | – | – | – | MIC [6]: 4 µM (≈ 10.9 µg/mL); MIC [7]: 4 µM (≈ 10.9 µg/mL); MIC [8]: 2 µM (≈ 5.45 µg/mL); MIC [9]: 2 µM (≈ 5.45 µg/mL); MIC [10]: 1 µM (≈ 2.73 µg/mL); MIC [11]: 1 µM (≈ 2.73 µg/mL) |
| CC[C@H](C)[C@H](NC(=O)[C@H](CCCCN)NC(=O)[C@H](CO)NC(=O)[C@H](CO)NC(=O)[C@H](CC(C)C)NC(=O)[C@H](CCCCN)NC(=O)[C@H](CCCCN)NC(=O)[C@H](CC(C)C)NC(=O)[C@H](CC(C)C)NC(=O)[C@H](CCCCN)NC(=O)[C@H](CCC(N)=O)NC(=O)[C@H](Cc1ccc(O)cc1)NC(=O)[C@H](Cc1ccccc1)NC(=O)[C@H](CCC(N)=O)NC(=O)[C@H](CO)NC(=O)[C@H](CCC(=O)O)NC(=O)[C@H](CCCN=C(N)N)NC(=O)[C@H](CC(N)=O)NC(=O)[C@@H]1CCCN1)C(=O)O [PNRESQFYQKLLKKLSSKI] | – | – | – | 111 µM (≈ 256 µg/mL) | – | – | ≥ 111 µM | – |
| CC[C@H](C)[C@H](NC(=O)[C@H](CCCCN)NC(=O)[C@H](CO)NC(=O)[C@H](C)NC(=O)[C@@H](NC(=O)[C@H](CCCN=C(N)N)NC(=O)[C@H](CC(=O)O)NC(=O)[C@H](CC(C)C)NC(=O)[C@H](CC(C)C)NC(=O)[C@H](CCCCN)NC(=O)[C@H](CC(C)C)NC(=O)[C@@H](NC(=O)[C@@H](NC(=O)[C@H](CC(N)=O)NC(=O)[C@H](CC(N)=O)NC(=O)[C@@H](NC(=O)[C@H](CCCCN)NC(=O)[C@H](CCCCN)NC(=O)[C@@H]1CCCN1)[C@@H](C)CC)[C@@H](C)O)[C@@H](C)CC)C(C)C)C(=O)O [PKKINNTILKLLDRVASKI] | – | – | – | – | – | – | 29.6 µM (≈ 64 µg/mL) | – |
| CC(C)C[C@H](NC(=O)[C@H](Cc1c[nH]c2ccccc12)NC(=O)[C@H](CCCN=C(N)N)NC(=O)[C@H](CCCCN)NC(=O)[C@H](Cc1c[nH]c2ccccc12)NC(=O)[C@H](CCCN=C(N)N)NC(=O)[C@H](CCC(N)=O)NC(=O)[C@@H](NC(=O)[C@H](Cc1c[nH]c2ccccc12)NC(=O)[C@H](CCCN=C(N)N)NC(=O)[C@H](CCCCN)NC(=O)[C@@H](N)Cc1c[nH]c2ccccc12)C(C)C)C(=O)N[C@@H](CCCN=C(N)N)C(N)=O [WKRWVQRWKRWLR] | – | – | – | – | – | – | – | MIC [6]: 8 µM (≈ 15.9 µg/mL); MIC [7]: 4 µM (≈ 7.93 µg/mL); MIC [8]: 16 µM (≈ 31.7 µg/mL); MIC [9]: 2 µM (≈ 3.97 µg/mL); MIC [10]: 2 µM (≈ 3.97 µg/mL); MIC [11]: 4 µM (≈ 7.93 µg/mL) |
| C[C@@H](O)[C@H](NC(=O)[C@H](CCCN=C(N)N)NC(=O)[C@H](Cc1c[nH]c2ccccc12)NC(=O)[C@H](CCCN=C(N)N)NC(=O)[C@@H](NC(=O)[C@H](CCCN=C(N)N)NC(=O)[C@H](Cc1c[nH]c2ccccc12)NC(=O)[C@H](CCCN=C(N)N)NC(=O)[C@@H](NC(=O)[C@H](CCCN=C(N)N)NC(=O)[C@@H](N)Cc1c[nH]c2ccccc12)[C@@H](C)O)[C@@H](C)O)C(=O)N[C@@H](CCCN=C(N)N)C(N)=O [WRTRWRTRWRTR] | 4 µM (≈ 7.26 µg/mL) | 4 µM (≈ 7.26 µg/mL) | 4 µM (≈ 7.26 µg/mL) | 8 µM (≈ 14.5 µg/mL) | 4 µM (≈ 7.26 µg/mL) | 8 µM (≈ 14.5 µg/mL) | – | MIC (Acinetobacter baumannii): ≥ 32 µM; MIC (Escherichia coli): 2 µM (≈ 3.63 µg/mL); MIC (Pseudomonas aeruginosa): > 64 µM; MIC (Staphylococcus aureus): 4 µM (≈ 7.26 µg/mL) |
| CC[C@H](C)[C@H](NC(=O)[C@H](CCCCN)NC(=O)[C@H](Cc1c[nH]c2ccccc12)NC(=O)[C@H](Cc1ccccc1)NC(=O)[C@H](CC(C)C)NC(=O)[C@H](CCCCN)NC(=O)[C@H](CCCCN)NC(=O)[C@@H](N)CCCCN)C(=O)N1CCC[C@H]1C(=O)N[C@@H](CCCCN)C(=O)N[C@@H](Cc1ccccc1)C(=O)N[C@@H](CC(C)C)C(=O)N[C@@H](Cc1cnc[nH]1)C(=O)N[C@@H](CC(C)C)C(=O)N[C@@H](C)C(=O)N[C@@H](CCCCN)C(=O)N[C@@H](CCCCN)C(=O)N[C@@H](Cc1ccccc1)C(N)=O [KKKLFWKIPKFLHLAKKF] | – | – | – | – | – | – | – | MIC [6]: 1 µM (≈ 2.3 µg/mL); MIC [7]: 2 µM (≈ 4.6 µg/mL); MIC [8]: 2 µM (≈ 4.6 µg/mL); MIC [9]: 1 µM (≈ 2.3 µg/mL); MIC [10]: 2 µM (≈ 4.6 µg/mL); MIC [11]: 1 µM (≈ 2.3 µg/mL) |
| CC(C)C[C@H](NC(=O)[C@H](CCCN=C(N)N)NC(=O)[C@H](CCCCN)NC(=O)[C@H](CCCN=C(N)N)NC(=O)[C@@H](NC(=O)[C@H](CCCCN)NC(=O)[C@H](CCCCN)NC(=O)[C@H](CCCN=C(N)N)NC(=O)[C@H](CC(C)C)NC(=O)[C@H](CCCN=C(N)N)NC(=O)[C@@H](N)CCCN=C(N)N)[C@@H](C)O)C(=O)N[C@@H](CCCCN)C(N)=O [RRLRKKTRKRLK] | > 128 µM | ≥ 64 µM | ≥ 128 µM | > 128 µM | > 128 µM | > 128 µM | – | – |
| CC[C@H](C)[C@H](NC(=O)[C@H](CCCCN)NC(=O)[C@H](CCCN=C(N)N)NC(=O)CNC(=O)[C@H](CC(C)C)NC(=O)[C@H](CCCN=C(N)N)NC(=O)[C@H](CCCN=C(N)N)NC(=O)[C@H](CC(C)C)NC(=O)CNC(=O)CNC(C)=O)C(=O)N[C@@H](CC(C)C)C(=O)N[C@@H](CCCN=C(N)N)C(=O)N[C@@H](C)C(=O)N[C@H](C(=O)N[C@@H](CCCCN)C(=O)N[C@@H](CCCCN)C(=O)N[C@@H](Cc1ccc(O)cc1)C(=O)NCC(N)=O)C(C)C [GGLRRLGRKILRAVKKYG] | 8.84 µM (≈ 18.4 µg/mL) | – | – | – | – | – | 4.42 µM (≈ 9.2 µg/mL) | MIC (Klebsiella pneumoniae): 8.84 µM (≈ 18.4 µg/mL); MIC [13]: 8.84 µM (≈ 18.4 µg/mL) |

Second part, led by results:

| MIC [1] | MIC (Escherichia coli UB1005) | MIC [2] | MIC [3] | MIC [4] | MIC [5] | MIC [12] | Compound | other results |
| --- | --- | --- | --- | --- | --- | --- | --- | --- |
| > 100 µM | – | – | – | – | – | ≥ 100 µM | CC[C@H](C)[C@H](NC(=O)[C@H](CCCCN)NC(=O)[C@H](CC(C)C)NC(=O)CNC(=O)[C@H](CC(C)C)NC(=O)[C@H](CO)NC(=O)[C@H](CCCN=C(N)N)NC(=O)[C@H](CC(C)C)NC(=O)CNC(=O)CNC(C)=O)C(=O)N[C@@H](CC(C)C)C(=O)N[C@@H](CC(C)C)C(=O)N[C@@H](C)C(=O)N[C@@H](Cc1c[nH]c2ccccc12)C(=O)N[C@@H](CCCCN)C(=O)N[C@@H](CCCCN)C(=O)N[C@@H](Cc1ccc(O)cc1)C(=O)NCC(N)=O [GGLRSLGLKILLAWKKYG] | MIC (Klebsiella pneumoniae): > 100 µM; MIC [13]: > 100 µM |
| 2 µM (≈ 3.28 µg/mL) | 2 µM (≈ 3.28 µg/mL) | 2 µM (≈ 3.28 µg/mL) | 2 µM (≈ 3.28 µg/mL) | 1 µM (≈ 1.64 µg/mL) | 2 µM (≈ 3.28 µg/mL) | – | CC(C)[C@H](NC(=O)[C@H](CCCCN)NC(=O)[C@H](Cc1c[nH]c2ccccc12)NC(=O)[C@H](CCCCN)NC(=O)[C@@H](NC(=O)[C@H](CCCCN)NC(=O)[C@H](Cc1c[nH]c2ccccc12)NC(=O)[C@H](CCCCN)NC(=O)[C@@H](NC(=O)[C@H](CCCCN)NC(=O)[C@@H](N)Cc1c[nH]c2ccccc12)C(C)C)C(C)C)C(=O)N[C@@H](CCCCN)C(N)=O [WKVKWKVKWKVK] | MIC (Acinetobacter baumannii): 1.41 µM (≈ 2.32 µg/mL); MIC (Escherichia coli): 1 µM (≈ 1.64 µg/mL); MIC (Pseudomonas aeruginosa): 4 µM (≈ 6.57 µg/mL); MIC (Staphylococcus aureus): 2 µM (≈ 3.28 µg/mL) |
